From patent US11198695B2, “Fused ring derivative having MGAT-2 inhibitory activity” (Shionogi & Co., Ltd., priority 2017, dated 2021)

molecular target: recombinant human MGAT2 (Homo sapiens (Human), UniProt Q3SYC2); assay: Measurement of human MGAT2 inhibitory activity; type: biochemical; settings: read-out: IC50 (concentration exhibiting 50% enzyme inhibition), Table 52
Experimental: A full-length human MGAT2 gene to which a Flag-tag had been added at the N-terminal was inserted into pFastBac (from Invitrogen). A recombinant baculovirus was produced in accordance with the protocol for a Bac-to-Bac baculovirus expression system (produced by Invitrogen), and Sf-9 cells were infected therewith. The cells were collected and sonicated, and then the membrane fraction was collected through centrifugation. Western blotting analysis with an anti-Flag antibody was performed for the membrane fraction to confirm expression, and the membrane fraction was used as a recombinant human MGAT2 enzyme solution.
Solutions of the compounds of the present invention in DMSO were each aliquoted into 0.2-μL portions in a 384-well polystyrene microplate produced by Corning Incorporated, and 5 μL of an enzyme solution prepared with an assay buffer (100 mmol/L phosphate buffer (pH 7.4) containing 2 mmol/L DTT) and 5 μL of a substrate solution (100 mmol/L phosphate buffer (pH 7.4), 30 μmol/L 2-Oleoylglycerol, 10 μmol/L Oleoyl-CoA) were added thereto, and the resultant was stirred and centrifuged, and incubated in a moist chamber at room temperature for 1 hour. After enzymatic reaction, 50 μL of a quenching solution (containing 0.2 μmol/L Diolein-d5, 0.4% formic acid, and 50% isopropanol) containing Internal Standard (IS) was added to terminate the reaction, and the resultant was sealed in a plate produced by Shimadzu GLC Ltd., and then stirred and centrifuged, and measurement was performed by using an electrospray ionization method with a RapidFire360 and Agilent 6550 Q-TOF mass spectrometer. Diolein as a reaction product (P) of 2-Oleoylglycerol as the substrate and an ammonium adduct ion of the IS were detected, and the peak intensity ratio, P/IS, was calculated from the peak heights to evaluate the inhibitory activity. Inhibitory activities with/without addition of enzyme were defined as Control (+)/Control (−), respectively, and the respective % inhibitions were defined as 0% inhibition and 100% inhibition. The inhibitory activity was calculated from formula below with TIBCO Spotfire (produced by TIBCO Software Inc.): Inhibitory activity (%)=[1−{Sample−Control(−)}/{Control(+)−Control(−)}]*100 where Sample indicates a peak intensity ratio: P/IS, when the compound of the present invention was added.

recombinant human MGAT2, sequence (Q3SYC2 whole entry): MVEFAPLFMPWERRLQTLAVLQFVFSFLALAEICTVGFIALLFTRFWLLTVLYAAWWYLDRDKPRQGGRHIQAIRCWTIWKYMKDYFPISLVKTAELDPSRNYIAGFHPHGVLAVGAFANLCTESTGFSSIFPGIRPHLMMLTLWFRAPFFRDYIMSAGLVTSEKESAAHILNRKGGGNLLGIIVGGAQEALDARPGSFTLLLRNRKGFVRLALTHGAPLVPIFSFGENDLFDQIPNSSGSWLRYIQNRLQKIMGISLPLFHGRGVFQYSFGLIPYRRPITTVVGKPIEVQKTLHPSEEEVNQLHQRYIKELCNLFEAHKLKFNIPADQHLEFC

SMILES | IC50 [nM]
O=C1N[C@@]2(CCc3cc(OCC(F)(F)F)ccc32)Cc2nn(CCC3CC3)c(C(=O)NS(=O)(=O)Cc3ccccc3)c21 [Compound I-119] | 150
CCS(=O)(=O)NC(=O)c1c2c(nn1CCC1CC1)C[C@]1(CCc3cc(OCC(F)(F)F)ccc31)NC2=O [Compound I-120] | 46
O=C1N[C@@]2(CCc3cc(OCC(F)(F)F)ccc32)Cc2nn(CCC3CC3)c(C(=O)NS(=O)(=O)C3CCC3)c21 [Compound I-121] | 47
CS(=O)(=O)CC(=O)Nc1c2c(nn1-c1ccc(C#N)cn1)C[C@@]1(CCc3cc(N4CC(C(F)(F)F)C4)ccc31)NC2=O [Compound I-122] | 1.8
CS(=O)(=O)CC(=O)Nc1c2c(nn1-c1cccc(F)c1)C[C@]1(CCc3cc(OCC(F)(F)F)ccc31)NC2=O [Compound I-123] | 55.5
CS(=O)(=O)CC(=O)Nc1c2c(nn1-c1cccc(Cl)c1)C[C@]1(CCc3cc(OCC(F)(F)F)ccc31)NC2=O [Compound I-124] | 22
CS(=O)(=O)CC(=O)Nc1c2c(nn1-c1cccc(C(F)(F)F)c1)C[C@]1(CCc3cc(OCC(F)(F)F)ccc31)NC2=O [Compound I-125] | 525
CS(=O)(=O)CC(=O)Nc1c2c(nn1-c1cccc(OC(F)(F)F)c1)C[C@]1(CCc3cc(OCC(F)(F)F)ccc31)NC2=O [Compound I-126] | 710
CS(=O)(=O)CC(=O)Nc1c2c(nn1-c1cc(F)cc(F)c1)C[C@]1(CCc3cc(OCC(F)(F)F)ccc31)NC2=O [Compound I-127] | 105
CS(=O)(=O)CC(=O)Nc1c2c(nn1-c1cc(Cl)cc(Cl)c1)C[C@]1(CCc3cc(OCC(F)(F)F)ccc31)NC2=O [Compound I-128] | 40.5
Cc1cc(C)cc(-n2nc3c(c2NC(=O)CS(C)(=O)=O)C(=O)N[C@@]2(CCc4cc(OCC(F)(F)F)ccc42)C3)c1 [Compound I-129] | 26.5
CS(=O)(=O)CC(=O)Nc1c2c(nn1-c1cc(C(F)(F)F)cc(C(F)(F)F)c1)C[C@]1(CCc3cc(OCC(F)(F)F)ccc31)NC2=O [Compound I-130] | 505
CS(=O)(=O)CC(=O)Nc1c2c(nn1-c1ccc(F)c(F)c1)C[C@]1(CCc3cc(OCC(F)(F)F)ccc31)NC2=O [Compound I-131] | 5.2
Cc1ccc(-n2nc3c(c2NC(=O)CS(C)(=O)=O)C(=O)N[C@@]2(CCc4cc(OCC(F)(F)F)ccc42)C3)cc1C [Compound I-132] | 9.65
CS(=O)(=O)CC(=O)Nc1c2c(nn1-c1ccc(C#N)cc1)C[C@]1(CCc3cc(OCC(F)(F)F)ccc31)NC2=O [Compound I-133] | 14
Cc1cccc(-n2nc3c(c2NC(=O)CS(C)(=O)=O)C(=O)N[C@@]2(CCc4cc(OCC(F)(F)F)ccc42)C3)n1 [Compound I-134] | 340
Cc1ccnc(-n2nc3c(c2NC(=O)CS(C)(=O)=O)C(=O)N[C@@]2(CCc4cc(OCC(F)(F)F)ccc42)C3)c1 [Compound I-135] | 3.1
CS(=O)(=O)CC(=O)Nc1c2c(nn1CCCC(F)(F)F)C[C@@]1(CCc3cc(OCC(F)(F)F)cc(F)c31)NC2=O [Compound I-136] | 4.1
CS(=O)(=O)CC(=O)Nc1c2c(nn1-c1ccc(C#N)cn1)C[C@@]1(CCc3cc(OCC(F)(F)F)cc(F)c31)NC2=O [Compound I-137] | 1.7
CS(=O)(=O)NCc1c2c(nn1CCC1CC1)C[C@]1(CCc3cc(OCC(F)(F)F)ccc31)NC2=O [Compound I-138] | 550
CCc1ccc(-n2nc3c(c2NC(=O)CS(C)(=O)=O)C(=O)N[C@@]2(CCc4cc(OCCCC(F)(F)F)ccc42)C3)cc1 [Compound I-139] | 4.1
O=C1N[C@@]2(CCc3cc(OCC(F)(F)F)ccc32)Cc2nn(CCC3CC3)c(CNS(=O)(=O)C3CCCC3)c21 [Compound I-140] | 730
CC(C)S(=O)(=O)NCc1c2c(nn1CCC1CC1)C[C@]1(CCc3cc(OCC(F)(F)F)ccc31)NC2=O [Compound I-141] | 430

SMILES | IC50 [nM]
O=C1N[C@@]2(CCc3cc(OCC(F)(F)F)ccc32)Cc2nn(CCC3CC3)c(CNS(=O)(=O)C3CCOCC3)c21 [Compound I-142] | 270
O=C1N[C@@]2(CCc3cc(OCC(F)(F)F)ccc32)Cc2nn(CCC3CC3)c(CNS(=O)(=O)C3CCC3)c21 [Compound I-143] | 510
O=C1N[C@@]2(CCc3cc(OCC(F)(F)F)ccc32)Cc2nn(CCC3CC3)c(CNS(=O)(=O)CCO)c21 [Compound I-144] | 400
O=C1N[C@@]2(CCc3cc(OCC(F)(F)F)ccc32)Cc2nn(CCC3CC3)c(CNC(=O)C3CC3)c21 [Compound I-145] | 83
Cc1ccccc1C(=O)NCc1c2c(nn1CCC1CC1)C[C@]1(CCc3cc(OCC(F)(F)F)ccc31)NC2=O [Compound I-146] | 420
O=C1N[C@@]2(CCc3cc(OCC(F)(F)F)ccc32)Cc2nn(CCC3CC3)c(CNC(=O)C3CCC3)c21 [Compound I-147] | 39
O=C(CC(F)(F)F)NCc1c2c(nn1CCC1CC1)C[C@]1(CCc3cc(OCC(F)(F)F)ccc31)NC2=O [Compound I-148] | 5.6
O=C(NCc1c2c(nn1CCC1CC1)C[C@]1(CCc3cc(OCC(F)(F)F)ccc31)NC2=O)c1cccc(O)c1 [Compound I-149] | 690
O=C(NCc1c2c(nn1CCC1CC1)C[C@]1(CCc3cc(OCC(F)(F)F)ccc31)NC2=O)c1ncco1 [Compound I-150] | 100
O=C(NCc1c2c(nn1CCC1CC1)C[C@]1(CCc3cc(OCC(F)(F)F)ccc31)NC2=O)c1ccon1 [Compound I-151] | 180
O=C(NCc1c2c(nn1CCC1CC1)C[C@]1(CCc3cc(OCC(F)(F)F)ccc31)NC2=O)c1ccno1 [Compound I-152] | 300
N#CC1(C(=O)NCc2c3c(nn2CCC2CC2)C[C@]2(CCc4cc(OCC(F)(F)F)ccc42)NC3=O)CC1 [Compound I-153] | 240
O=C(NCc1c2c(nn1CCC1CC1)C[C@]1(CCc3cc(OCC(F)(F)F)ccc31)NC2=O)c1cocn1 [Compound I-154] | 530
CC(C)(O)C(=O)NCc1c2c(nn1CCC1CC1)C[C@]1(CCc3cc(OCC(F)(F)F)ccc31)NC2=O [Compound I-155] | 180
O=C1N[C@@]2(CCc3cc(OCC(F)(F)F)ccc32)Cc2nn(CCC3CC3)c(CNC(=O)C3(O)CC3)c21 [Compound I-156] | 920
O=C1N[C@@]2(CCc3cc(OCC(F)(F)F)ccc32)Cc2nn(CCC3CC3)c(CNC(=O)C3(C(F)(F)F)CC3)c21 [Compound I-157] | 38
O=C1N[C@@]2(CCc3cc(OCC(F)(F)F)ccc32)Cc2nn(CCC3CC3)c(CNC(=O)C3(C(F)(F)F)CCC3)c21 [Compound I-158] | 130
O=C(NCc1c2c(nn1CCC1CC1)C[C@]1(CCc3cc(OCC(F)(F)F)ccc31)NC2=O)c1cnco1 [Compound I-159] | 600
CC(C)(C#N)C(=O)NCc1c2c(nn1CCC1CC1)C[C@]1(CCc3cc(OCC(F)(F)F)ccc31)NC2=O [Compound I-160] | 78
O=C1N[C@@]2(CCc3cc(OCC(F)(F)F)ccc32)Cc2nn(CCC3CC3)c(CNC(=O)C3CS(=O)(=O)C3)c21 [Compound I-161] | 430
CS(=O)(=O)CC(=O)Nc1c2c(nn1-c1ccc(C#N)cn1)C[C@]1(CCc3cc(OCC(F)(F)F)cc(F)c31)NC2=O [Compound I-162] | 1.9
CS(=O)(=O)CC(=O)Nc1c2c(nn1-c1ccc(C#N)cn1)C[C@]1(CCc3cc(N4CC(F)(F)C4)ccc31)NC2=O [Compound I-163] | 3.6
